Columns and labels:
zebrafish embryos = test: Zebrafish embryo development assay; format: in vivo, Zebrafish (Danio rerio)
Procedure: Animals. Zebrafish (Danio rerio) were raised, maintained and crossed as described before (Westerfield, M. University of Oregon Press, Eugene. Or., 1993). Development of embryos was studied at 28° C. and staging was determined by morphological characteristics (Kimmel, C. B., et al., Dev. Dyn. 203, 253-310 (1995)).
A translation blocking anti-ezrin morpholino oligonucleotide (MO), described and validated by Link et al. (Link, V., et al., J. Cell Sci., 119, 2073-2083 (2006)), MO1, 5′-[…] (SEQ ID NO:1), was synthesized by Gene-Tools, LCC (Philomath, Oreg.). MOs were microinjected into one to four cell stage embryos.
Zebrafish embryos were arrayed, three per well, in 96-well plates. Compounds were added at 1-33 μM concentrations. Embryos were observed, and photographed, at 70% epiboly, 24-28 hours post fertilization (hpf) and 48 hpf.

[1] = test system: low ezrin expressed K12 cells; test: Electric cell migration system, K12 cells; format: cell-based; conditions: non-toxic concentration
Procedure: (§1) Anti-migration potential of the embodied compounds were validated using an electric cell migration system. High ezrin expressed K7M2 cells and low ezrin expressed K12 cells were treated with non-toxic concentrations of a compound and their corresponding anti-migration activity was measured. Data is represented as the ratio of compound K7M2 anti-migration activity divided by the K12 anti-migration activity. The X-axis details the non-toxic concentration of the compound used in the study.

[2] = test system: high ezrin expressed K7M2 cells; test: Electric cell migration system, K7M2 cells; format: cell-based; conditions: non-toxic concentration; compared to NSC 668394
Procedure: as §1

Compound	embryos with epiboly defects at 90% epiboly stage (zebrafish embryos; 3 ng injected)	embryos with epiboly defects at 90% epiboly stage (zebrafish embryos; 6 ng injected)	embryos with epiboly defects at 90% epiboly stage (zebrafish embryos; 12 ng injected)	effect on K12 cell line migration [1]	anti-migratory activity on K7M2 cells [2]
5′-CGCGAACATTTACTGGTTTAGG (SEQ ID NO:1) (all phosphorodiamidate morpholino (PMO)) [MO1]	42%	69%	69%		
COc1ccc(CCNC2=CC(=O)c3cccnc3C2=O)cc1Cl [GK2-057]				benign	greater anti-migratory activity

Reference: US9522908B2, “Ezrin inhibitors and methods of making and using” (Georgetown University, priority 2010, dated 2016)
